This is an account of results in ChEMBL document CHEMBL1671733, “Clinical evaluation of a dried blood spot assay for atazanavir” (Antimicrob Agents Chemother, 2010).

As a reminder, the Cmax is the peak of the concentration-time curve.

Common to all, as to assay type: ADME, organism-based
Data set [1] is described as follows: Cmin in HIV infected patient at 400 mg qd measured after 13.06 hrs by plasma based assay using HPLC. The conditions noted are these: human, read-out: Cmin.
Data set [2] is described as follows: Plasma concentration in HIV infected patient at 300 mg qd measured after 16.60 hrs by plasma based assay using HPLC. The conditions noted are these: human.
Data set [3] is filed under the species Homo sapiens. Briefly: Plasma concentration in HIV infected patient with HIV RNA of <50 copies/ml by dried blood spot assay using reversed-phase ultrahigh-performance liquid chromatography. The conditions noted are these: in vivo.
The nature of data set [4]: Cmax in HIV infected patient at 300 mg qd measured after 16.60 hrs by plasma based assay using HPLC. Further details: dose 300 mg. The conditions noted are these: human.
The nature of data set [5]: Cmin in HIV infected patient at 300 mg qd measured after 16.60 hrs by plasma based assay using HPLC. The conditions noted are these: human, read-out: Cmin.
For data set [6], the species on record is Homo sapiens. Briefly: Plasma concentration in HIV infected patient with HIV RNA of >50 copies/ml by dried blood spot assay using reversed-phase ultrahigh-performance liquid chromatography. The conditions noted are these: in vivo.
Data set [7] in a line: Plasma concentration in HIV infected patient at 400 mg qd measured after 13.06 hrs by plasma based assay using HPLC. The conditions noted are these: human.
Data set [8] is described as follows: Cmax in HIV infected patient at 400 mg qd measured after 13.06 hrs by plasma based assay using HPLC. Further details: dose 400 mg. The conditions noted are these: human.

On to `COC(=O)N[C@H](C(=O)N[C@@H](Cc1ccccc1)[C@@H](O)CN(Cc1ccc(-c2ccccn2)cc1)NC(=O)[C@@H](NC(=O)OC)C(C)(C)C)C(C)(C)C` [ATAZANAVIR], for which the figures for the concentration at 13.06 h in data set [1] and in data set [7] were 342 ng/mL and 465 ng/mL, respectively. Further, the figures for the concentration at 16.6 h in data set [2] and in data set [5] were 1630 ng/mL and 196 ng/mL, respectively. The Cp in data set [3] is 1582 ng/mL; in data set [6], 543 ng/mL. In addition, the values for the Cmax in data set [4] and in data set [8] were 7220 ng/mL and 787 ng/mL, respectively.
